Assay results taken from patent US20220257597A1, “Methods of Administering Elagolix” (AbbVie Inc., priority 2021, published 2022).
Where two headings read alike, the source gives them in different places.

Tests used:
[1] = Drug interactions: effects of ORIAHNN on other drugs; details: co-administration of ORIAHNN
[2] = Drug interactions: effects of ORILISSA on other drugs; details: co-administration of ORILISSA
[3] = Drug interaction studies: change in pharmacokinetics of co-administered drug in the presence of elagolix; assay type: in vivo, human; details: for changes in exposures when co-administered with elagolix, in words: elagolix 300 mg twice daily
Protocol: Drug interaction studies were performed with elagolix and other drugs likely to be co-administered and with drugs commonly used as probes for pharmacokinetic interactions. Tables 8 and 9 summarize the pharmacokinetic effects when elagolix was co-administered with these drugs.

[4] = Drug interaction studies: change in pharmacokinetics of elagolix in the presence of co-administered drugs; assay type: in vivo, human; details: for changes in elagolix exposures when co-administered, in words: elagolix 300 mg twice daily, rosuvastatin 20 mg once daily, sertraline 25 mg once daily or fluconazole 200 mg single dose
[5] = Phase 1 open-label study: coadministration of combined oral contraceptive (EE+LNG) with elagolix sodium, pharmacokinetics, safety and tolerability; assay type: in vivo, human; details: for Ratio (90% CI) AUC, co-administration with elagolix vs medication alone / Ratio (90% CI) Cmax, co-administration with elagolix vs medication alone: ethinyl estradiol 20 mcg/levonorgestrel 0.1 mg single dose, elagolix 200 mg twice daily x 15 days, N 20; for AUC(0-t) / AUC(0-inf) / Cmax: female, human, in vivo, oral
Protocol: Objective: To evaluate the effect of elagolix on the pharmacokinetics, safety, and tolerability of a single dose of a combined oral contraceptive (COC) containing EE and LNG in healthy premenopausal female subjects. […] [table] […] Diagnosis and Main Criteria for Inclusion: Subjects were premenopausal females, and age was between 18 and 49 years, inclusive. Test Product, Dose/Strength/Concentration, and Mode of Administration: […] EE/LNG 0.02 mg/0.1 mg tablet; All study drugs were administered orally. Duration of Treatment: […] EE/LNG: 0.02 mg/0.1 mg on two separate occasions. Criteria for Evaluation: Pharmacokinetic: Cmax, Tmax, t1/2 and AUC. Safety: Vital signs, physical examinations, laboratory tests, and adverse events. […] The tabulation of the number of subjects with treatment-emergent adverse events also was provided with further breakdowns by severity rating and relationship to study drug.

[6] = digoxin 0.5 mg single dose, elagolix 200 mg twice daily x 10 days, N 11
[7] = midazolam 2 mg single dose, elagolix 150 mg once daily x 13 days, N 11
[8] = midazolam 2 mg single dose, elagolix 300 mg twice daily x 11 days, N 20
[9] = COC 20 mcg EE/0.1 mg levonorgestrel, elagolix 200 mg twice daily
[10] = COC 20 mcg EE/0.1 mg levonorgestrel, elagolix 200 mg twice daily, listed as EE
[11] = Study Day 1: EE/LNG 0.02 mg/0.1 mg
[12] = Study Day 1: EE/LNG 0.02 mg/0.1 mg, read-out: AUCt, Central Value Reference
[13] = Study Day 18: EE/LNG 0.02 mg/0.1 mg + elagolix 200 mg, read-out: AUCinf, Central Value Test
[14] = Study Day 18: EE/LNG 0.02 mg/0.1 mg + elagolix 200 mg, read-out: AUCt, Central Value Test
[15] = following elagolix 200 mg BID for 14 days
[16] = ethinyl estradiol 35 mcg and triphasic norgestimate 0.18/0.215/0.25 mg once daily, elagolix 150 mg once daily, N 21

## C[C@H]1O[C@@H](O[C@H]2[C@@H](O)C[C@H](O[C@H]3[C@@H](O)C[C@H](O[C@H]4CC[C@@]5(C)[C@H](CC[C@@H]6[C@@H]5C[C@@H](O)[C@]5(C)[C@@H](C7=CC(=O)OC7)CC[C@]65O)C4)O[C@@H]3C)O[C@@H]2C)C[C@H](O)[C@@H]1O [digoxin]
[1]
  Effect on Plasma Exposure of Concomitant Drug (direction of change in AUC): ↑ digoxin
[2]
  Effect on Plasma Exposure of Concomitant Drug (direction of change in AUC): ↑ digoxin
[3]; [6]
  Ratio (90% CI) AUC, co-administration with elagolix vs medication alone: 1.26
  Ratio (90% CI) Cmax, co-administration with elagolix vs medication alone: 1.71

## CO[C@H]1/C=C/O[C@@]2(C)Oc3c(C)c(O)c4c(O)c(c(/C=N/N5CCN(C)CC5)c(O)c4c3C2=O)NC(=O)/C(C)=C\C=C\[C@H](C)[C@H](O)[C@@H](C)[C@@H](O)[C@@H](C)[C@H](OC(C)=O)[C@@H]1C [Rifampin]
[4]; concomitant use of rifampin
  effect of concomitant use on plasma concentrations of elagolix, in words: increased

## Cc1ncc2n1-c1ccc(Cl)cc1C(c1ccccc1F)=NC2 [midazolam]
[1]
  Effect on Plasma Exposure of Concomitant Drug (direction of change in AUC): ↓ midazolam
[2]
  Effect on Plasma Exposure of Concomitant Drug (direction of change in AUC): ↓ midazolam
[3]; [7]
  Ratio (90% CI) AUC, co-administration with elagolix vs medication alone: 0.65
  Ratio (90% CI) Cmax, co-administration with elagolix vs medication alone: 0.81
[3]; [8]
  Ratio (90% CI) AUC, co-administration with elagolix vs medication alone: 0.46
  Ratio (90% CI) Cmax, co-administration with elagolix vs medication alone: 0.56

## CN[C@H]1CC[C@@H](c2ccc(Cl)c(Cl)c2)c2ccccc21 [sertraline]
[4]
  changes in elagolix exposures when co-administered, in words: No clinically significant changes
[3]
  changes in exposures when co-administered with elagolix, in words: No clinically significant changes

## C#C[C@]1(O)CC[C@H]2[C@@H]3CCc4cc(O)ccc4[C@H]3CC[C@@]21C [ethinyl estradiol, 17α-Ethynylestra-1,3,5(10)-triene-3,17β-diol]
[1]
  Effect on Plasma Exposure of Concomitant Drug (direction of change in AUC): ↑ethinyl
[2]
  Effect on Plasma Exposure of Concomitant Drug (direction of change in AUC): ↑ethinyl
[5]; [9]
  AUCinf ratio, co-administered in the presence of elagolix vs alone: 2.18
  Cmax ratio, co-administered in the presence of elagolix vs alone: 1.36
[5]; COC 20 mcg EE/0.1 mg levonorgestrel, elagolix 200 mg twice daily for 14 days
  increase in plasma EE concentration compared to COC alone: 2.2 fold
[5]; [10]
  AUCinf ratio, co-administered in the presence of elagolix vs alone: about 2.18
  Cmax ratio, co-administered in the presence of elagolix vs alone: about 1.36
[5]; [11]
  AUCinf, Central Value Reference: 494 pg·h/mL
  CCmax, Central Value Reference: 49.0 pg/mL
[5]; Study Day 18: EE/LNG 0.02 mg/0.1 mg + elagolix 200 mg
  CCmax, Central Value Test: 66.4 pg/mL
[5]
  Ratio (90% CI) AUC, co-administration with elagolix vs medication alone: 2.18
  Ratio (90% CI) Cmax, co-administration with elagolix vs medication alone: 1.36
[5]; [12]
  AUC(0-t): 0.437 ng·h/mL
[5]; [13]
  AUC(0-inf): 1.08 ng·h/mL
[5]; [14]
  AUC(0-t): 0.941 ng·h/mL
[5]; [15]
  increase in AUCinf: 118%
  increase in Cmax: 36%
[3]; [16]
  Ratio (90% CI) AUC, co-administration with elagolix vs medication alone: 1.30
  Ratio (90% CI) Cmax, co-administration with elagolix vs medication alone: 1.15

## C#C[C@]1(O)CC[C@H]2[C@@H]3CCC4=CC(=O)CC[C@@H]4[C@H]3CC[C@@]21CC [levonorgestrel, 17α-Ethynyl-18-methylestr-4-en-17β-ol-3-one]
[1]
  Effect on Plasma Exposure of Concomitant Drug (direction of change in AUC): ↓levonorgestrel
[2]
  Effect on Plasma Exposure of Concomitant Drug (direction of change in AUC): ↓ levonor-
[5]; COC containing 0.1 mg levonorgestrel, elagolix 200 mg twice daily
  decrease in plasma concentrations of levonorgestrel: 27%
[5]
  Ratio (90% CI) AUC, co-administration with elagolix vs medication alone: 0.73
  Ratio (90% CI) Cmax, co-administration with elagolix vs medication alone: 0.97
[5]; Study Day 1: EE/LNG 0.02 mg/0.1 mg, read-out: AUCinf, Central Value Reference
  AUC(0-inf): 42.1 ng·h/mL
[5]; [12]
  AUC(0-t): 31.1 ng·h/mL
[5]; Study Day 1: EE/LNG 0.02 mg/0.1 mg, read-out: Cmax, Central Value Reference
  Cmax: 2.62 ng/mL
[5]; [13]
  AUC(0-inf): 30.5 ng·h/mL
[5]; [14]
  AUC(0-t): 25 ng·h/mL
[5]; Study Day 18: EE/LNG 0.02 mg/0.1 mg + elagolix 200 mg, read-out: Cmax, Central Value Test
  Cmax: 2.54 ng/mL
[5]; [15]
  decrease in AUCinf: 27%
  decrease in Cmax: 3%

## OC(Cn1cncn1)(Cn1cncn1)c1ccc(F)cc1F [fluconazole]
[4]
  changes in elagolix exposures when co-administered, in words: No clinically significant changes
[3]
  changes in exposures when co-administered with elagolix, in words: No clinically significant changes
